Results: patent US20100022514A1, “Heterocycle Compounds and Methods of Use Thereof” (NORVARTIS AG, priority 2006, published 2010)

How the values were obtained:
[1] = system: p21 promoter (p21-luc) in H1299 cells; test: p21 promoter luciferase assay using stably transfected p21-luc in H1299 cells; assay type: cell-based; details: Homo sapiens, NCI-H1299
Method: The cell lines used are derived from H1299 (p21-luc). The growth media used is RPMI 1640, 10% FBS, 1% Pen/Strep and the selection media added is 500 μg/mL Geneticin (Gibco). The buffer used is 5× cell culture lysis buffer (Promega #E1531), stored at −20 C and the Luciferase assay reagent (Promega #E1483) is stored at −70° C. The results of the assay are analyzed using Wallac Software.
To assay Luciferase, the cell culture medium is removed after one day of growth and the flasks are washed once with PBS. The cells are trypsinized in 20 mL of media and the trypsin is neutralized. The cells are counted (0.5-1 mL) on a Vi-Cell XR cell viability analyzer.
Cells are then diluted to a concentration of approximately 5000 cells/200 μL, and 190 μL samples are aliquoted into each well of a Costar white 96-well TC treated white bottom plate with lid (Costar #3917). Plates are then incubated overnight at 37 C.
After a further day, a sample of the compound is added to the wells for assay.
After a further day, the cells are lysed and the luciferase activity of the lysed cells is measured. Each well is washed twice with PBS and 20 μL/well of 1× cell culture lysis buffer (dilute 5× to 1× in distilled water) is added to each well. The microtiter plates are then shaken on a microtiter plate shaker for 20 minutes at room temperate at a speed setting of 5-6. After removal from the shaker, 100 μL of Luciferase Reagent is added to each well. Each microtiter plate is then read on Wallac Envision instrument.

[2] = biological target: T1, HDAC-1 (Homo sapiens, UniProt Q13547); test: Deacetylase fluorescence assay (HDAC-1); assay type: biochemical; details: read-out: HDAC-1 IC50
T1 construct: made in house
Method: Conventional methods are used to express deacetylase enzymes and purify them from lysed cells. The following example describes an exemplary procedure, however equivalent procedures are within the scope of the invention.
The cell line used is a derivative of 293 cells overexpressing a fusion of the gene encoding each deacetylase protein with a nucleotide sequence encoding the Flag marker.
Cells are grown in Optimem, 2% Fetal Calf Serum, Pen/Strep. For enzyme preparation, Lysis buffer (IPLS) is 50 mM Tris-HCl, pH 7.5, 120 mM NaCl, 0.5 mM EDTA and 0.5% Nonidet P-40, to which is added one tablet of Protease inhibitors (Roche 11836170001) per 10 ml buffer. Other buffers are IPHS, which is IPLS containing 1 M NaCl; TBS (Sigma #T5912) dilute 10× stock to 1× with dH2O; HD buffer: 10 mM Tris pH 8.0 (1M Stock) 10 mM NaCl (5M Stock), 10% glycerol, and for dialysis: 400 μM PMSF is added (for 2 L: use 8 ml 100 mM Stock). Protease inhibitors (Complete mini, Boehringer Mannheim), 1 tablet/10 mL are added to all buffers but not used in buffers for enzyme assays.
Cells are harvested without using trypsin, and most cells are obtained easily in PBS, with gentle striking or agitation of flasks if necessary. More adherent cells are scraped in PBS. Cells are grown in 500 cm^2 trays, from which about half of the media is aspirated (50 ml total), then cells are scraped in the rest of the media and transferred to a centrifuge tube. Trays are washed with 25 ml cold PBS, scraped again to collect additional cells, and centrifuged at 1500 rpm at 4° C. for 5 min. Cells are washed at least 3 times in PBS to remove growth media, pelleting cells after each wash by centrifugation at 1500 rpm for 5 minutes. After washing, PBS is removed and the resulting cell pellet frozen at −80° C. for storage prior to purification.
For purification, cells are resuspended in lysis buffer, 12 ml of IPLS for cells collected from 10 500 cm trays. Cells are lysed at 4° C. for 3 hrs with rocking, and debris is removed by centrifugation for 20 min at 17,000 rpm in 30 ml centrifuge tubes. If supernatant is not clear afterward, centrifugation of the supernatant is repeated. Protein concentration of the whole cell lysate is determined (generally in the range of about 2-5 mg/ml).
For immunoprecipitation per mg of protein, 15 μL of anti-Flag M2-Agarose Affinity beads (Sigma #A2220) is used. Beads are prepared by washing 3 times with 10× bead volume of PBS and 1 time with IPLS, with centrifugation of the washes at 1500 rpm for 5 min. Whole cell lysate is incubated with the Ab-beads overnight at 4° C. Then beads are centrifuged and washed in 5× volume of the following buffers: three times in IPLS (30 sec at 4° C., spin at 1500 RPM for 5 min); three times in IPHS; and three times in TBS buffer. After each centrifugation, the supernatant is aspirated, leaving the pellet as dry as possible but avoiding sucking up any of the beads.
To elute the enzyme, beads are resuspended in 5× bead volume of TBS with protease inhibitor (Roche 11836170001) 1 tablet/10 mL. Enzyme is eluted with 400 μg/mL Flag peptide (Sigma #F-3290) for 3 hrs at 4° C. on rotator. Then beads are centrifuged, and the supernatant is transferred to a new tube to which is added 1/10 volume of glycerol. The supernatant is transferred to a dialysis cassette (Pierce #66410) using a 3 cc syringe and 18 G needle, and is dialyze sup in 2 L HD buffer for 2 hrs at 4° C. (1 L/hour). The resulting purified deacetylase is divided into aliquots (300 μL/tube), is snap frozen in dry ice bath, and is stored at −80° C.
For assay of deacetylase an assay based on Deacetylase Fluorescent Activity Assay/Drug Discovery Kit (BioMol # AK500) is used, however any equivalent deacetylase assay is within the scope of the invention.
The Fluorescent Assay Buffer (FAB) contains: 25 mM Tris-HCl, pH 8.0, 137 mM NaCl, 2.7 mM KCl and 1 mM MgCl2. […]

T1 sequence (Q13547 whole entry): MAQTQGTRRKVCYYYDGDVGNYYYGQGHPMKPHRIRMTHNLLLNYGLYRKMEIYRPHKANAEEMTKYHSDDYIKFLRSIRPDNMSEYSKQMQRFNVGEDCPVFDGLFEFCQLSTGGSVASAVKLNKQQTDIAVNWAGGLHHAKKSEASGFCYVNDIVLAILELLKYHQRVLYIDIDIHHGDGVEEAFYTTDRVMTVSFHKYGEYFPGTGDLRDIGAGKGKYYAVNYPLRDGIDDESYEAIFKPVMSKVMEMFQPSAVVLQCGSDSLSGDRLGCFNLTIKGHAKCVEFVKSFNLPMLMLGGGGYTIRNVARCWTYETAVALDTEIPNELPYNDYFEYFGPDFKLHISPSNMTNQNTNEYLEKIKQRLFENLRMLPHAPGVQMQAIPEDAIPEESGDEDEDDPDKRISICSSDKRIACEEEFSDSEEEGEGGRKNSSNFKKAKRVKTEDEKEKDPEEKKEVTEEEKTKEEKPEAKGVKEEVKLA

Row | IC50 [2] [µM] | Structure (SMILES) | AC50 [1] [µM]
1 | 0.1 to 1 | O=C(/C=C/c1ccc2c(c1)CN(CCc1ccnn1-c1ccccc1)CC2)NO [Example 48, (E)-N-Hydroxy-3-{2-[2-(2-phenyl-2H-pyrazol-3-yl)-ethyl]-1,2,3,4-tetrahydro-isoquinolin-7-yl}-acrylamide] | > 1
2 | 0.1 to 1 | O=C(/C=C/c1ccc2c(c1)CN(C(=O)c1cccc(C(F)(F)F)c1)C2)NO [Example 16, (E)-N-Hydroxy-3-[2-(3-trifluoromethyl-benzoyl)-2,3-dihydro-1H-isoindol-5-yl]-acrylamide] | > 1
3 | 0.1 to 1 | CC(C)(C)C(=O)N1Cc2ccc(/C=C/C(=O)NO)cc2C1 [Example 3, (E)-3-[2-(2,2-Dimethyl-propionyl)-2,3-dihydro-1H-isoindol-5-yl]-N-hydroxy-acrylamide] | > 1
4 | 0.1 to 1 | COc1ccc(C(=O)N2CCc3cc(/C=C/C(=O)NO)ccc3C2)cc1 [Example 89, (E)-N-Hydroxy-3-[2-(4-methoxy-benzoyl)-1,2,3,4-tetrahydro-isoquinolin-6-yl]-acrylamide] | > 1
5 | < 0.1 | O=C(/C=C/c1ccc2c(c1)CCN(CCc1ccccc1)C2)NO [Example 75, (E)-N-Hydroxy-3-(2-phenethyl-1,2,3,4-tetrahydro-isoquinolin-6-yl)-acrylamide] | > 1
6 | < 0.1 | Cc1[nH]c2ccccc2c1CC(=O)N1CCc2cc(/C=C/C(=O)NO)ccc2C1 [Example 79, (E)-N-Hydroxy-3-{2-[2-(2-methyl-1H-indol-3-yl)-acetyl]-1,2,3,4-tetrahydro-isoquinolin-6-yl}-acrylamide] | > 1
7 | < 0.1 | O=C(/C=C/c1ccc2c(c1)CCN(CCC1CCCCC1)C2)NO [Example 76, (E)-3-[2-(2-Cyclohexyl-ethyl)-1,2,3,4-tetrahydro-isoquinolin-6-yl]-N-hydroxy-acrylamide] | > 1
8 | 0.1 to 1 | O=C(/C=C/c1ccc2c(c1)CN(CCc1ccccc1)CC2)NO [Example 44, (E)-N-Hydroxy-3-(2-phenethyl-1,2,3,4-tetrahydro-isoquinolin-7-yl)-acrylamide] | > 1
9 | 0.1 to 1 | O=C(/C=C/c1ccc2c(c1)CN(S(=O)(=O)c1ccccc1)CC2)NO [Example 54, (E)-3-(2-Benzenesulfonyl-1,2,3,4-tetrahydro-isoquinolin-7-yl)-N-hydroxy-acrylamide] | > 1
10 | < 0.1 | Cc1[nH]c2ccccc2c1CCN1CCCc2cc(/C=C/C(=O)NO)ccc2C1 [Example 41, (E)-N-Hydroxy-3-{2-[2-(2-methyl-1H-indol-3-yl)-ethyl]-2,3,4,5-tetrahydro-1H-benzo[c]azepin-7-yl}-acrylamide] | > 1
11 | 0.1 to 1 | CC(C)(C)OC(=O)N1Cc2ccc(/C=C/C(=O)NO)cc2C1 [Example 2, 5-((E)-2-Hydroxycarbamoyl-vinyl)-1,3-dihydro-isoindole-2-carboxylic acid tert-butyl ester] | > 1
12 | < 0.1 | COc1ccc(CC(=O)N2CCc3ccc(/C=C/C(=O)NO)cc3C2)cc1 [Example 65, (E)-N-Hydroxy-3-{2-[2-(4-methoxy-phenyl)-acetyl]-1,2,3,4-tetrahydro-isoquinolin-7-yl}-acrylamide] | > 1
13 | < 0.1 | CC(C)(C)c1[nH]c2ncccc2c1CCN1CCc2ccc(/C=C/C(=O)NO)cc2C1 [Example 43, (E)-3-{2-[2-(2-tert-Butyl-1H-pyrrolo[2,3-b]pyridin-3-yl)-ethyl]-1,2,3,4-tetrahydro-isoquinolin-7-yl}-N-hydroxy-acrylamide] | > 1

Row | Structure (SMILES) | IC50 [2] [µM] | AC50 [1] [µM]
14 | Cc1[nH]c2ccccc2c1CCN1CCc2ccc(CCC(=O)NO)cc2C1 [Example 37, N-Hydroxy-3-{2-[2-(2-methyl-1H-indol-3-yl)-ethyl]-1,2,3,4-tetrahydro-isoquinolin-7-yl}-propionamide] | > 1 | > 1
